Results taken from patent publication US20240216320A1, “COMPOSITIONS AND METHODS FOR TREATING SICKLE CELL DISEASE” (Augusta University Research Institute, Inc., priority 2019, published 2024).

How the values were obtained:
[1] = system: γ-globin mRNA in K562 cells; assay: γ-globin transcription by RT-qPCR in K562 cells; type: cell-based; conditions: 48 h
Experimental: Initial studies were conducted in K562 cells to determine the ability of AN-233 to induce γ-globin transcription and HbF expression. K562 cells display characteristics of erythroid cells including expression of the ε, γ and α globin genes and these cells are useful for initial drug screening and discovery of potential HbF inducers.
K562 cells were treated with AN-233 for 48 h and globin gene transcription was analyzed by RT-qPCR. […]
(§1) K562 cells were cultured in Iscove's Modified Dulbecco medium (IMDM) with 10% fetal bovine serum, penicillin (100 U/mL) and streptomycin (0.1 mg/mL). Drug inductions for K562 cells were conducted for 48 h and cell viability evaluated with 0.4% Trypan blue exclusion. Cell counts were performed a dual chamber apparatus and the percentage viability obtained using an Automated Cell Counter (Bio-Rad).
Total RNA was extracted from cells using Trizol (Ambion, Carlsbad CA) and analyzed by RT-qPCR as previously published by our group. Gene-specific primers were used to quantify mRNA levels for γ-globin, β-globin and internal control glyceraldehyde-3-phosphate de-hydrogenase (GAPDH). All mRNA levels were normalized to GAPDH before analysis.

HbF in K562 cells [2] = assay: Western blot of HbF levels in K562 cells; type: cell-based; conditions: 48 h, AN-233 dose-dependent
Experimental: as §1
(§2) Western blot analysis was performed using whole cell lysates generated with RIPA buffer (ThermoScientific, Rockford, IL) supplemented with proteinase and phosphatase inhibitor cocktails. For histone acetylation studies, nuclear lysates were prepared by suspending cells in buffer containing 20 mM HEPES, pH 7.9, 50 mM KCl, 420 mM NaCl, 0.1 mM EDTA, 1 mM DTT, 10% glycerol and protease inhibitor mixture for 30 min, followed by centrifugation. Antibodies against HbF (51-7), HbA (37-8), and Tata binding protein (TBP; N-12) were purchased from Santa Cruz Biotechnology (Dallas TX); antibodies against β-actin (A5316) and rabbit IgG (18140) were purchased from Sigma (St. Louis MO). Acetylated histone H3 (AcH3; 06-599) and AcH4 (06-866) antibodies were purchased from Millipore (Burlington, MA).

[3] = system: intracellular heme in K562 cells; assay: QuantiChrom heme quantitation assay in K562 cells; type: cell-based; conditions: for heme levels in control experiments: ALA 0.5 and 2.0 mM, hemin 75 μM
Experimental: The total cellular heme content was determined using the QuantiChrom™ Heme Assay Kit (DIHM-250, BioAssay Systems, Hayward, CA) per the manufacturer's instructions. Briefly, 25 μL of cellular lysate was mixed with 100 μL of detection reagent. The mixture was incubated at room temperature for 5 min followed by measuring the absorbance at 400 nm on a microplate reader. The total heme concentration was calculated based on a formula provided by the manufacturer: Heme concentration=(OD^sample−OD^blank)/(OD^calibrator−OD^blank)×125× dilution factor. This value was normalized by total protein in each sample.

HbF in K562 cells [4] = assay: HbF positive cells (F-cells) by flow cytometry in K562 cells; type: cell-based
Experimental: as §1
(§3) To measure percent HbF positive cells (F-cells), K562 cells and erythroid precursors were fixed with 1% formaldehyde, permeabilized with ice-cold acetone:methanol (4:1 ratio) and stained with fluorescein isothiocyanate (FITC) anti-HbF antibody (ab19365, Abcam Cambridge MA) and isotype control IgG antibody (MBS524511, MyBioSource, San Diego CA) was used to detect non-specific staining. The F-cells levels and HbF protein levels measured by mean fluorescence intensity (MFI) were analyzed on an LSR-II flow cytometer (BD Biosciences, San Jose CA) and FlowJo analysis to generate quantitative data.

[5] = system: Heme-regulated inhibitor (HRI) kinase; assay: Western blot of HRI in K562 cells; type: cell-based; conditions: dose-dependent, maximal
Experimental: as §2
(§4) Since the biosynthesis of heme prosthetic group requires ALA as a precursor and AN-233 is hydrolyzed to BA and ALA, it was next determined whether heme levels are altered after treatments of K562 cells. Using a colorimetric quantitative assay, a 1.5-fold and 1.8-fold increase (p<0.05) in intracellular heme was observed after 0.25 mM and 0.5 mM AN-233 treatment respectively (FIG. 2A). […] Therefore, K562 cells were treated with AN-233 and phosphorylated and total HRI and eIF2αP levels were measured. […]

[6] = system: eIF2αP (eukaryotic translation initiation factor 2α phosphorylation); assay: Western blot of eIF2αP in K562 cells; type: cell-based; conditions: dose-dependent, maximal
Experimental: as §2, §4

p38 MAPK = assay: Western blot of phosphorylated p38 MAPK in K562 cells; type: cell-based; conditions: 0.25 mM
Experimental: as §2
The second active metabolite of AN-233 hydrolysis is BA. It was previously reported that HbF induction by BA occurs through p38 MAPK activation.

[7] = system: HbF in sickle erythroid precursors; assay: F-cells and HbF MFI by flow cytometry in sickle erythroid precursors; type: cell-based, human
Experimental: (§5) For primary cultures, erythroid precursors were generated from peripheral blood mononuclear cells isolated from discard blood of sickle patients under an IRB exempt protocol. These cells were cultured in a two-phase liquid culture system previously published (Li, B., et al., Haematologica 103:e384-e387 (2018)).
(§6) During phase 1, cells were grown in Iscove's Dulecco Media with 15% fetal bovine serum, 15% human AB serum, 10 ng/mL interleukin-3, 50 ng/mL stem cell factor and 2 IU/mL of erythropoietin (Peprotech, Rocky Hill NJ). Phase 2 of culture initiated on day 7 with a similar medium without stem cell factor and interleukin-3. On day 8, erythroid precursors were treated with AN-233 (0.125 mM and 0.25 mM), ethanol (EtOH; […] and 0.016%) and the positive control HU (100 μM) for 48 h and harvested for the various analyses.
as §3

[8] = system: HbF in sickle erythroid precursors; assay: Western blot of HbF in sickle erythroid precursors; type: cell-based, human
Experimental: as §5, §6
(§7) Western blot analysis was performed using whole cell lysates generated with RIPA buffer (ThermoScientific, Rockford, IL) supplemented with proteinase and phosphatase inhibitor cocktails. For histone acetylation studies, nuclear lysates were prepared by suspending cells in buffer containing 20 mM HEPES, pH 7.9, 50 mM KCl, 420 mM NaCl, 0.1 mM EDTA, 1 mM DTT, 10% glycerol and protease inhibitor mixture for 30 min, followed by centrifugation. […]

[9] = system: HbS in sickle erythroid precursors; assay: Western blot of HbS in sickle erythroid precursors; type: cell-based, human; conditions: 0.25 mM
Experimental: as §5, §6, §7

[10] = system: sickle erythroid precursors; assay: In vitro sickling assay under 2% oxygen; type: cell-based, human
Experimental: In vitro sickling studies were conducted as previously published by our group (Zhu, X., et al., Blood, 131:558-562 (2018)). Briefly, after drug inductions of sickle erythroid pre-cursors for 48 h, cells were incubated in 2% oxygen overnight and then fixed with 2% formaldehyde. Erythroid morphology was evaluated microscopically and the number of sickled cells per high power field manually counted for 1000 cells, per triplicates per condition.

[11] = system: acetylated histone H3 (AcH3); assay: Western blot of acetylated histone H3 in nuclear lysates of sickle erythroid cells; type: cell-based, human
Experimental: as §2

γ-globin promoter = assay: ChIP assay, histone acetylation in γ-globin promoter; type: cell-based, human; conditions: for enrichment for AcH3 in the γ-globin promoter: compared to IgG control, dose-dependent
Experimental: (§8) ChIP assay was performed as previously published by our group with immunoprecipitations for AcH3, AcH4 and TBP antibodies (Santa Cruz Biotechnology) and rabbit IgG as a control. Primers used to quantify in vivo chromatin modifications are as follows: locus control region DNase I hypersensitive site 2 (LCR-HS2) forward […] (SEQ ID NO:1) and reverse […] (SEQ ID NO:2), γ-globin promoter (forward CTGAAACGGTCCCTGGCTA (SEQ ID NO:3), reverse […] (SEQ ID NO:4)), and β-globin promoter (forward […] (SEQ ID NO:5), reverse […] (SEQ ID NO:6)).

LCR-HS2 = assay: ChIP assay, histone acetylation in LCR-HS2; type: cell-based, human
Experimental: as §8

β-globin gene promoter = assay: ChIP assay, histone acetylation in β-globin gene promoter; type: cell-based, human
Experimental: as §8

[12] = system: HbF in β-YAC transgenic mice; assay: HbF induction (F-cells, MFI) in β-YAC transgenic mice; type: in vivo, mouse
β-YAC transgenic mice = assay: Toxicity, body weight, blood counts and reticulocytes in β-YAC transgenic mice
Experimental: The β-YAC is a transgenic mouse model containing the full-length 81 kb human β-globin gene locus including the LCR and surrounding region. The five functional human globin genes 5′-ε-Gγ-Aγ-[…]-β-3′ are present and undergo normal developmental regulation with the γ-globin gene silenced shortly after birth. β-YAC mice (5-6 months old) were administered AN-233 suspended in water (200 or 300 mg/kg) 5 days/week for 4 weeks by intraperitoneal injection; five mice per group with 3 males and 2 females were treated. Hydroxyurea (100 mg/kg) was included as a positive control. Blood was collected by tail bleed at week 0, 2 and 4 and analyzed for automated complete blood counts with differential using a Micros 60 machine (HORIBA Medical/ABX Diagnostics). The level of F-cells and MFI were performed by flow cytometry. For reticulocyte counts, whole blood was stained with acridine orange and flow cytometry performed on an LSR-II flow cytometer (BD Biosciences).

anemic C57BL mouse model = conditions: cited from earlier work
[13] = system: HbF in patients with β-thalassemia; conditions: cited from earlier work

Molecule: NCC(=O)CCC(=O)O [ALA, δ-aminolevulinate]
- increase in γ-globin mRNA levels ([1]; 0.125 mM): 1.5 fold
- increase in HbF by Western blot (HbF in K562 cells [2]): 6 fold
- heme levels in control experiments [3]: increased heme levels

Molecule: CCCC(=O)OC(C)OC(=O)CCC(=O)CN (stereo not drawn) [AN-233, 1-(butyryloxy)ethyl-5-amino-4-oxopentanoate]
- increase in γ-globin mRNA levels ([1]; 0.125 mM): 1.8 fold
- increase in γ-globin mRNA levels ([1]; 0.25 mM): 2.0 fold
- F-cells (HbF in K562 cells [4]; K562 cells, 0.125 and 0.25 mM, 48 h, maximum, 10% in EtOH treated controls): 19%
- increase in intracellular heme ([3]; 0.25 mM): 1.5 fold
- increase in intracellular heme ([3]; 0.5 mM): 1.8 fold
- decrease in HRI [5]: 52%
- decrease in eIF2αP levels [6]: 50%
- increase in phosphorylated p38 MAPK (p38 MAPK): 1.4 fold
- increase in F-cells ([7]; sickle erythroid precursors, 0.125 and 0.25 mM, 48 h, maximal): 2 fold
- F-cells ([7]; sickle erythroid precursors, 0.125 and 0.25 mM, maximal, from 16.31%): 32.5%
- increase in HbF measured by MFI ([7]; sickle erythroid precursors, 48 h): 1.5 fold
- increase in HbF protein by Western blot ([8]; sickle erythroid precursors, 0.25 mM): 2.6 fold
- HbS expression by Western blot [9]: without changing HbS expression
- reduction of the percentage of sickled erythroid precursors ([10]; 2% oxygen overnight): up to 56%
- global AcH3 levels in nuclear lysates [11]: increased global AcH3 levels
- AcH4 levels in the γ-globin promoter (γ-globin promoter; ChIP): increased
- enrichment for AcH3 in the γ-globin promoter (γ-globin promoter; first (lower) value): 12 fold
- enrichment for AcH3 in the γ-globin promoter (γ-globin promoter; second (higher) value): 30 fold
- increase in AcH3 in LCR-HS2 (LCR-HS2): 12.5 fold
- increase in AcH4 in LCR-HS2 (LCR-HS2): 5 fold
- histone acetylation at the β-globin gene promoter (β-globin gene promoter): no significant changes
- increase in F-cells ([12]; 200 mg/kg ip): 3.4 fold
- increase in HbF measured by MFI ([12]; 200 mg/kg ip): 1.4 fold
- F-cells ([12]; 200 mg/kg ip, from 15.46%): 52.5%
- HbF measured by MFI ([12]; 200 mg/kg ip, from 588 units): 824 units
- increase in F-cells ([12]; 300 mg/kg ip): 4.5 fold
- increase in HbF measured by MFI ([12]; 300 mg/kg ip): 1.7 fold
- F-cells ([12]; 300 mg/kg ip, from 13.5%): 60.6%
- HbF measured by MFI ([12]; 300 mg/kg ip, from 447 units): 760 units
- anti-proliferative effects on erythropoiesis (β-YAC transgenic mice; mouse, in vivo): without observing anti-proliferative effects
- increase in reticulocytes (β-YAC transgenic mice; β-YAC mice, 300 mg/kg ip, week 4, p=0.01): 1.8 fold
- toxicity (anemic C57BL mouse model; anemic C57BL mice, oral, 4 weeks, up to 400 mg/kg): without toxicity
- hemoglobin levels (anemic C57BL mouse model; anemic C57BL mice, oral, 4 weeks): improved
- histone acetylation in spleen tissue (anemic C57BL mouse model; tissue harvested 4 to 6 h after one oral dose): histone hyper-acetylation

Molecule: CCCC(=O)O [BA, butyric acid]
- increase in γ-globin mRNA levels ([1]; 0.125 mM): 3 fold
- increase in HbF by Western blot (HbF in K562 cells [2]): 2 fold

Molecule: NC(=O)NO [HU, hydroxyurea]
- γ-globin mRNA induction ([1]; HU control): 1.7 fold
- HbF measured by MFI, compared with AN-233 ([7]; sickle erythroid precursors, HU 100 μM): comparable
- anti-sickling effect, compared with AN-233 ([10]; 2% oxygen overnight, HU): similar
- blood counts (Hb, hematocrit, white blood cells, platelets) (β-YAC transgenic mice; β-YAC mice, 4-week treatment, AN-233 at both doses, HU 100 mg/kg): decreased total Hb, hematocrit, and white blood cell and platelet counts
- increase in reticulocytes (β-YAC transgenic mice; β-YAC mice, HU 100 mg/kg ip, week 4, p=0.002): 1.9 fold
- body weights (β-YAC transgenic mice; β-YAC mice, ip, 4 weeks of treatment, all groups): normal body weights were maintained

Molecule: C[S+]([O-])c1ccc(-c2nc(-c3ccncc3)c(-c3ccc(F)cc3)[nH]2)cc1 (stereo not drawn) [SB203580, reference compound]
- decrease in F-cell levels (HbF in K562 cells [4]; pretreatment with SB203580 10 μM followed by 0.25 mM AN-233): 30%
- effect of pretreatment on F-cells and MFI ([7]; SB203580 pretreatment, at both AN-233 concentrations): reduced F-cells and MFI levels
- effect on AN-233 HbF protein increase by Western blot ([8]; SB203580 treatment with 0.25 mM AN-233): inhibited
- sickled erythroid progenitor levels after pretreatment ([10]; SB203580 pretreatment before AN-233, 2% oxygen): higher sickled erythroid progenitor levels

Molecule: CCC(C)(C)C(=O)[O-].[Na+] [sodium dimethylbutyrate]
- patients with HbF induction [13]: 70 % of patients

Molecule: hemin [reference compound]
- heme levels in control experiments [3]: increased heme levels
